Reference: ChEMBL document CHEMBL1126778, “Adenosine A1 antagonists. 3. Structure-activity relationships on amelioration against scopolamine- or N6-((R)-phenylisopropyl)adenosine-induced cognitive disturbance” (J Med Chem, 1993)
Where “and” joins values, the source holds several entries; their conditions need not be identical. Identical values can stand only once.

Key:
Adenosine A2 receptor = Adenosine A2 receptor (Rattus norvegicus, UniProt P29276+P30543); experiment: Binding affinity at Adenosine A2 receptor from rat striatal membranes by N-[3H] ethyladenosin-5'- uronamide displacement.
Mus musculus [1] = experiment: Acquisition time in (R)-PIA) induced avoidance test (performed in mice) for antagonistic activity after p.o. administration of 0.31 mg/kg; type: functional; conditions: route oral
Mus musculus [2] = experiment: Acquisition time in (R)-PIA) induced avoidance test (performed in mice) for antagonistic activity after p.o. administration of 1.25 mg/kg; type: functional; conditions: route oral
Mus musculus [3] = experiment: Acquisition time in (R)-PIA) induced avoidance test (performed in mice) for antagonistic activity after peroral administration of 20 mg/kg; type: functional; conditions: route oral
Mus musculus [4] = experiment: Retention time in (R)-PIA) induced avoidance test (performed in mice) for antagonistic activity after p.o. administration of 1.25 mg/kg; type: functional, organism-based; set-up: dose 1.25 mg/kg
Mus musculus [5] = experiment: Retention time in (R)-PIA) induced avoidance test (performed in mice) for antagonistic activity after peroral administration of 20 mg/kg; type: functional, organism-based; set-up: dose 20 mg/kg
Mus musculus [6] = experiment: Retention time in (R)-PIA) induced avoidance test (performed in mice) for antagonistic activity after peroral administration of 5 mg/kg; type: functional, organism-based; set-up: dose 5 mg/kg
Mus musculus [7] = experiment: Retention time in (R)-PIA) induced avoidance test (performed in mice) for antagonistic activity after peroral administration of 0.31 mg/kg; type: functional, organism-based; set-up: dose 0.31 mg/kg
Rattus norvegicus [8] = experiment: Acquisition time in Scopolamine induced avoidance test (performed in rat) for antagonistic activity after peroral administration of 1.25 mg/kg; type: functional; conditions: route oral
Rattus norvegicus [9] = experiment: Acquisition time in Scopolamine induced avoidance test (performed in rat) for antagonistic activity after peroral administration of 20 mg/kg; type: functional; conditions: route oral
Rattus norvegicus [10] = experiment: Acquisition time in Scopolamine induced avoidance test (performed in rat) for antagonistic activity after p.o. administration of 0.08 mg/kg; type: functional; conditions: route oral
Rattus norvegicus [11] = experiment: Acquisition time in Scopolamine induced avoidance test (performed in rat) for antagonistic activity after p.o. administration of 0.31 mg/kg; type: functional; conditions: route oral
Rattus norvegicus [12] = experiment: Acquisition time in Scopolamine induced avoidance test (performed in rat) for antagonistic activity after p.o. administration of 5 mg/kg; type: functional; conditions: route oral
Rattus norvegicus [13] = experiment: Retention time in Scopolamine induced avoidance test (performed in […]) for antagonistic activity after peroral administration of 5 mg/kg; type: functional, organism-based; set-up: dose 5 mg/kg
Rattus norvegicus [14] = experiment: Retention time in Scopolamine induced avoidance test (performed in rat) for antagonistic activity after p.o. administration of 0.08 mg/kg; type: functional, organism-based; set-up: dose 0.08 mg/kg
Rattus norvegicus [15] = experiment: Retention time in Scopolamine induced avoidance test (performed in rat) for antagonistic activity after p.o. administration of 0.31 mg/kg; type: functional, organism-based; set-up: dose 0.31 mg/kg
Rattus norvegicus [16] = experiment: Retention time in Scopolamine induced avoidance test (performed in rat) for antagonistic activity after peroral administration of 1.25 mg/kg; type: functional, organism-based; set-up: dose 1.25 mg/kg
Rattus norvegicus [17] = experiment: Retention time in Scopolamine induced avoidance test (performed in rat) for antagonistic activity after peroral administration of 20 mg/kg; type: functional, organism-based; set-up: dose 20 mg/kg
Mus musculus [18] = experiment: Acquisition time in (R)-PIA) induced avoidance test (performed in mice) for antagonistic activity after peroral administration of 5 mg/kg; type: functional; conditions: route oral
Mus musculus [19] = experiment: Retention time in (R)-PIA) induced avoidance test (performed in mice) for antagonistic activity after peroral administration of 0.02 mg/kg
Mus musculus [20] = experiment: Acquisition time in (R)-PIA) induced avoidance test (performed in mice) for antagonistic activity after peroral administration of 0.02 mg/kg; conditions: route oral
Adenosine receptor A1 [21] = target: T1, Adenosine receptor A1 (Rattus norvegicus, UniProt P25099); experiment: Tested for binding affinity against Adenosine A1 receptor from rat forebrain membranes, using N6-[3H]- cyclohexyladenosine as radioligand
T1 sequence (P25099 whole entry): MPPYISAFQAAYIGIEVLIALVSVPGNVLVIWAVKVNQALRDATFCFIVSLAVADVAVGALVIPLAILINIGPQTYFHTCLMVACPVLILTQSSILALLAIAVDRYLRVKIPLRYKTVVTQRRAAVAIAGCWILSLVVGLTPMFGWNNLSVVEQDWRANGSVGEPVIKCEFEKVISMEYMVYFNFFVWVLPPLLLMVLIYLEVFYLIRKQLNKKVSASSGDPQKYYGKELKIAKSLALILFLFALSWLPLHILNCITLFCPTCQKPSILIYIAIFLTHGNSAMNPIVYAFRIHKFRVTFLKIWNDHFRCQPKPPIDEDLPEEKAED

Adenosine receptor A1 [22] = target: T2, Adenosine receptor A1 (Cavia porcellus, UniProt P47745); experiment: Binding affinity against Adenosine A1 receptor from guinea pig forebrain membranes by N6-[3H]- cyclohexyladenosine displacement.
T2 sequence (P47745 whole entry): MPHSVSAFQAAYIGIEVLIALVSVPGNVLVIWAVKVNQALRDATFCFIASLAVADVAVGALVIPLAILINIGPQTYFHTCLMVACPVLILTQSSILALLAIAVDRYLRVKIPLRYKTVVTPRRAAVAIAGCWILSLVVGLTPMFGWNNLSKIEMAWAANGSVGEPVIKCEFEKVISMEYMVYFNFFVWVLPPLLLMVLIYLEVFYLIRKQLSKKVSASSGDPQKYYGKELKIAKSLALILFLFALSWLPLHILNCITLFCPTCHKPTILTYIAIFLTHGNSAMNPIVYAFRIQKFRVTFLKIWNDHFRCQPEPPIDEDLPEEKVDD

Mus musculus [23] = experiment: Acquisition time in (R)-PIA) induced avoidance test (performed in mice) for antagonistic activity after peroral administration of 0.02 mg/kg; type: functional; conditions: route oral
Mus musculus [24] = experiment: Acquisition time in (R)-PIA) induced avoidance test (performed in mice) for antagonistic activity after peroral administration of 0.08 mg/kg; type: functional; conditions: route oral
Mus musculus [25] = experiment: Retention time in (R)-PIA) induced avoidance test (performed in mice) for antagonistic activity after peroral administration of 0.08 mg/kg; type: functional, organism-based; set-up: dose 0.08 mg/kg
Mus musculus [26] = experiment: Retention time in (R)-PIA) induced avoidance test (performed in mice) for antagonistic activity after peroral administration of 0.02 mg/kg; type: functional, organism-based; set-up: dose 0.02 mg/kg
Rattus norvegicus [27] = experiment: Retention time in Scopolamine induced avoidance test (performed in […]) for antagonistic activity after peroral administration of 1.25 mg/kg; type: functional, organism-based; set-up: dose 1.25 mg/kg
Rattus norvegicus [28] = experiment: Retention time in Scopolamine induced avoidance test (performed in rat) for antagonistic activity after peroral administration of 0.02 mg/kg; type: functional, organism-based; set-up: dose 0.02 mg/kg
Rattus norvegicus [29] = experiment: Retention time in Scopolamine induced avoidance test (performed in rat) for antagonistic activity after peroral administration of 5 mg/kg; type: functional, organism-based; set-up: dose 5 mg/kg
Mus musculus [30] = experiment: Acquisition time in (R)-PIA) induced avoidance test (performed in mice) for antagonistic activity after peroral administration of 1.25 mg/kg; type: functional; conditions: route oral
Mus musculus [31] = experiment: Tested for locomotor activity after oral administration of 10 mg/kg for 120 min; type: functional
Mus musculus [32] = experiment: Tested for locomotor activity after oral administration of […] for 120 min; type: functional
Mus musculus [33] = experiment: Tested for locomotor activity after oral administration of 5 mg/kg for 120 min; type: functional
Rattus norvegicus [34] = experiment: Acquisition time in Scopolamine induced avoidance test (performed in rat) for antagonistic activity after peroral administration of 5 mg/kg; type: functional; conditions: route oral
Rattus norvegicus [35] = experiment: Acquisition time in Scopolamine induced avoidance test (performed in rat) for antagonistic activity after peroral administration of 0.08 mg/kg; type: functional; conditions: route oral

SMILES	Ki (Adenosine A2 receptor)	Ki (Adenosine receptor A1 [21])	Acquisition time (Mus musculus [1])	Acquisition time (Mus musculus [2])	Retention time (Mus musculus [4])	Retention time (Mus musculus [6])	Retention time (Mus musculus [7])	Acquisition time (Rattus norvegicus [8])	Acquisition time (Rattus norvegicus [9])	Acquisition time (Rattus norvegicus [10])	Acquisition time (Rattus norvegicus [11])	Acquisition time (Rattus norvegicus [12])	Retention time (Rattus norvegicus [13])	Retention time (Rattus norvegicus [14])	Retention time (Rattus norvegicus [15])	Retention time (Rattus norvegicus [16])	Retention time (Rattus norvegicus [17])	Acquisition time (Mus musculus [18])	Retention time (Mus musculus [19])	Acquisition time (Mus musculus [24])	further results
CCCn1c(=O)c2nc(C34CC5CC(CC3C5)C4)[nH]c2n(CCc2ccc(N)cc2)c1=O	> 100000 nM		14.8 s	20.3 s	168 s	92.5 s	60.3 s	15.3 s	18.3 s	12 s	8.3 s	11.9 s	182 s	20.5 s	95.9 s	136 s	232 s	14.7 s	36 s		Acquisition time (Mus musculus [3]): 14.7 s; Retention time (Mus musculus [5]): 98.7 s; Acquisition time (Mus musculus [20]): 18.1 s
CCCn1c(=O)c2[nH]c(C3CCC(=O)C3)nc2n(CCc2ccc(N)cc2)c1=O (configuration not stated)																					Ki (Adenosine receptor A1 [22]): 23 nM
Cn1c(=O)c2nc[nH]c2n(C)c1=O.O [THEOPHYLLINE]			35.8 s					11.1 s	10.6 s		12.2 s							20.3 s		30.8 s	Acquisition time (Mus musculus [30]): 16.2 s; Locomotor activity (Mus musculus [31]): 11031 Counts; Locomotor activity (Mus musculus [32]): 5914 Counts; Locomotor activity (Mus musculus [33]): 7682 Counts; Acquisition time (Rattus norvegicus [34]): 10.8 s; Acquisition time (Rattus norvegicus [35]): 10.6 s
CCCn1c(=O)c2nc(C3CC4CCCC4C3)[nH]c2n(CCC)c1=O (configuration not stated)		0.75 nM	23.3 s	14.5 s	317 s	384 s	140 s	9.5 s	9.9 s	10.8 s	11.1 s	11.1 s	22.6 s	30.7 s	29.6 s	18 s	35.1 s	42.7 s	18.5 s	24 s	Retention time (Mus musculus [25]): 83.2 s; Acquisition time (Mus musculus [20]): 13.4 s

Continued, in another order:

Ki (Adenosine A2 receptor)	Ki (Adenosine receptor A1 [21])	SMILES	Acquisition time (Mus musculus [1])	Acquisition time (Mus musculus [2])	Retention time (Mus musculus [4])	Retention time (Mus musculus [6])	Retention time (Mus musculus [7])	Acquisition time (Rattus norvegicus [8])	Acquisition time (Rattus norvegicus [9])	Acquisition time (Rattus norvegicus [10])	Acquisition time (Rattus norvegicus [11])	Acquisition time (Rattus norvegicus [12])	Retention time (Rattus norvegicus [13])	Retention time (Rattus norvegicus [14])	Retention time (Rattus norvegicus [15])	Retention time (Rattus norvegicus [16])	Retention time (Rattus norvegicus [17])	Acquisition time (Mus musculus [18])	Retention time (Mus musculus [19])	Acquisition time (Mus musculus [24])	further results
	1.5 nM	CCCn1c(=O)c2[nH]c(C34CC5CC(CC(C5)C3)C4)nc2n(CCC)c1=O																			
380 nM	0.19 nM	CCCn1c(=O)c2nc(C34CC5CC(CC3C5)C4)[nH]c2n(CCC)c1=S	20.4 s	18.4 s	164 s and 173 s	230 s		30.5 s		32.2 s	22.2 s	24.9 s		164 s	113 s			17.3 s		19.5 s	Ki (Adenosine receptor A1 [22]): 1.3 nM; Acquisition time (Mus musculus [23]): 17.5 s; Retention time (Mus musculus [25]): 124 s; Retention time (Mus musculus [26]): 37 s; Retention time (Rattus norvegicus [27]): 149 s; Retention time (Rattus norvegicus [28]): 129 s; Retention time (Rattus norvegicus [29]): 159 s
